According to article PMC7824442, “In Escherichia coli Ammonia Inhibits Cytochrome bo3 But Activates Cytochrome bd-I” (Antioxidants, 2020):

Legend:
cytochrome bd-I = target: T1, cytochrome bd-I (Escherichia coli, UniProt P0ABJ9); experiment: UV-visible absorption titration of the isolated oxidized enzyme at pH […] (Soret region, […] nm); activation of O2 reductase activity also shown; assay type: binding
T1 construct: gene cydA; isolated cytochrome bd-I; with other subunits of the four-subunit cytochrome bd-I complex
T1 sequence (P0ABK2 whole entry): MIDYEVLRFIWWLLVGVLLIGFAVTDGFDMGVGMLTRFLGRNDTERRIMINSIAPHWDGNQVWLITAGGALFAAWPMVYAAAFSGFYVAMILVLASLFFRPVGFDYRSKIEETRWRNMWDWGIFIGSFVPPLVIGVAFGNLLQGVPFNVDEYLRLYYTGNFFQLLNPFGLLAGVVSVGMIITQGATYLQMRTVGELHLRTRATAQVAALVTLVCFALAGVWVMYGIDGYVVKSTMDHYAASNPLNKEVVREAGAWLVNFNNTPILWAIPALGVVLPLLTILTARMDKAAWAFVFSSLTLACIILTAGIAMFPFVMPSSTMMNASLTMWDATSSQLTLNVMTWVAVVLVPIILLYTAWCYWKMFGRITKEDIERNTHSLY
T1 sequence (P0ABJ9 whole entry): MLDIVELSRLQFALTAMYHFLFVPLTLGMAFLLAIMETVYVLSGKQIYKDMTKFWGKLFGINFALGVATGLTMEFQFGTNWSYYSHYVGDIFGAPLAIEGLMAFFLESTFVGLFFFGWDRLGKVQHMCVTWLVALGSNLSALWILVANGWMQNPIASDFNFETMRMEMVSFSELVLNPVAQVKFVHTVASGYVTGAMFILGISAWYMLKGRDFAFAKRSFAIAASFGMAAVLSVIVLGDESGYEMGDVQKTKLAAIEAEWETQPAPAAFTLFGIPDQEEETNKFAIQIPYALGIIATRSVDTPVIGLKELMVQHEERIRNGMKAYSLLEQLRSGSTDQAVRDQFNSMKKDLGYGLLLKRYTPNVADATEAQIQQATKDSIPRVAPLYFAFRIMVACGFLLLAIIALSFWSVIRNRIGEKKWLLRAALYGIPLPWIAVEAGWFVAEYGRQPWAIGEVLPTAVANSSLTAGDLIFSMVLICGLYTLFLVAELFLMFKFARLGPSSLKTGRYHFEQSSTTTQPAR

cytochrome bo3 = target: T2, cytochrome bo3 (Escherichia coli, UniProt P0ABI8); experiment: UV-visible absorption titration of the isolated oxidized enzyme at pH […] (Soret region, […] nm); inhibition of O2 reductase activity also shown; assay type: binding
T2 construct: gene cyoB; isolated four-subunit His-tagged cytochrome bo3; with other subunits of the four-subunit cytochrome bo3 complex
T2 sequence (P0ABJ1 25-315): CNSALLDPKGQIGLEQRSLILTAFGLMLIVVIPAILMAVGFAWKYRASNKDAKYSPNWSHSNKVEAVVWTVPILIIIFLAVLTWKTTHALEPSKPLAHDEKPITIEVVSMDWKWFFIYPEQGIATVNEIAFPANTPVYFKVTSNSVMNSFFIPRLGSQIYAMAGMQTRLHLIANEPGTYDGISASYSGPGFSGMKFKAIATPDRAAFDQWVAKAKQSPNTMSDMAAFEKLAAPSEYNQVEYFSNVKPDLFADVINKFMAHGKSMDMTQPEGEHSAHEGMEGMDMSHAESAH
T2 sequence (P0ABJ6 whole entry, further chain): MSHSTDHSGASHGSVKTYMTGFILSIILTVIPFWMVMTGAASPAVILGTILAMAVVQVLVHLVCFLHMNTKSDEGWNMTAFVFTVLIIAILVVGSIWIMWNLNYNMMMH
T2 sequence (P0ABI8 whole entry): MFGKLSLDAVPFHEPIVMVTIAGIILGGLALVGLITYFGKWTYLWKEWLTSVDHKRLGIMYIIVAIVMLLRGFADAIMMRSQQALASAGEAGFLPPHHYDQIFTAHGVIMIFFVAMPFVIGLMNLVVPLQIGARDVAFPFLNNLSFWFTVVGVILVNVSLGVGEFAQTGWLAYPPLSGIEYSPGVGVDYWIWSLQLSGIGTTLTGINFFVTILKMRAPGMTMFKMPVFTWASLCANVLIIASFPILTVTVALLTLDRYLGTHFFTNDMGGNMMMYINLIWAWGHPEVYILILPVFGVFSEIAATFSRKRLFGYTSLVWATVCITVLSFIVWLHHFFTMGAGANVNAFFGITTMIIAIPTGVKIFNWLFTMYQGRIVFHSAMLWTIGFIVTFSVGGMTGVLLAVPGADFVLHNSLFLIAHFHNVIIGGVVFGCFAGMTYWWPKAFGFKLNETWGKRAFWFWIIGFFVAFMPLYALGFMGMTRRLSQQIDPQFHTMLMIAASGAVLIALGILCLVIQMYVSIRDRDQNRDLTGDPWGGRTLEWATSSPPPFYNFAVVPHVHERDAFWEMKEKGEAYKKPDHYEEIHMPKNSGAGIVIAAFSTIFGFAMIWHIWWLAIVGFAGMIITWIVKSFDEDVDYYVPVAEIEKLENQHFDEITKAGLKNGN
T2 sequence (P0ABJ3 whole entry, further chain): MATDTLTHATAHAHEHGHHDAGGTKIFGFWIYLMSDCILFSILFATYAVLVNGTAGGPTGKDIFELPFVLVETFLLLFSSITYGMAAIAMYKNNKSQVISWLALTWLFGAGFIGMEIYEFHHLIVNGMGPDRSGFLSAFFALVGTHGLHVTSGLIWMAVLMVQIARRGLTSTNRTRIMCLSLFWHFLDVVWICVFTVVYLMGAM

N [ammonia]
Kd (cytochrome bd-I): 7.2 ± 1.4 mM
Kd (cytochrome bo3): 4.9 ± 0.5 mM
